One experiment has as its system HCMV strain AD169. Nature of the experiment: HCMV plaque assay in MRC-5 cells. The settings on record: for inhibition of HCMV plaque formation as compared to the virus control experiment: 10 micrograms per ml, 7-10 days.
In another experiment the test system is HIV-1IIIB. The experiment in a line: HIV-1 antiviral assay in CEM-SS cells (MTS readout). In kind it is cell-based.
Experiment [1] deals with Primary Human endothelial cells (HUVEC). The experiment in a line: Endothelial cell migration assay. In kind it is cell-based. Particulars: 10 micrograms per ml, 22 hours.
Experiment [2] relates to hepatitis B virus (HBV) ayw strain. The experiment in a line: HBV experimental assay system, HepG2-2.2.15, TaqMan PCR of secreted HBV DNA. It is filed as cell-based. Particulars: 10 micrograms per ml, six days, HBV DNA by TaqMan PCR. The source says:
HepG2-2.2.15 is a stable cell line containing the hepatitis B virus (HBV) ayw strain genome (ATCC Cat. No. CRL-11997). Antiviral compounds blocking any late step of viral replication such as transcription, translation, pregenome encapsidation, reverse transcription, particle assembly and release can be identified and characterized using this cell line. In this assay, an active compound will reduce the production of secreted HBV from cells, measured by utilizing real time quantitative PCR (TaqMan) assay to directly and accurately measure HBV DNA copies.
HepG2-2.2.15 cells were plated in 96-well microtiter plates. After 16-24 hours the confluent monolayer of HepG2-2.2.15 cells was washed and the medium was replaced with complete medium containing test peptides—10 micrograms per ml—in duplicate. […] Six days following the initial administration of the peptides, the cell culture supernatants was collected, treated with pronase and DNAse and then used in a real-time quantitative TaqMan PCR assay. The PCR-amplified HBV DNA was detected in real-time by monitoring increases in fluorescence signals that result from the exonucleolytic degradation of a quenched fluorescence probe molecule that hybridizes to the mplified HBV DNA. […] Antiviral activity was calculated from the reduction in HBV DNA levels (% virus control). […]
Background: Real-time PCR tracks product formation cycle by cycle.

Another experiment deals with RAW 264.7 cells. The experiment in a line: Phagocytosis assay (Fluorescein-labeled Escherichia coli, flow cytometry). In kind it is cell-based, mouse. Particulars: 10 micrograms per ml, 30 min preincubation, 60 min ingestion.
For another experiment, the system named is spleen cells. The experiment in a line: Th1/Th2 cytokine profiling assay (Ovalbumin-restimulated spleen cells, CBA kit). It is filed as cell-based. The settings on record: 10 micrograms per ml; spleen cells of Ovalbumin-immunized Balb/c mice, restimulated with Ovalbumin 10 micrograms/ml; 72 hours.

No end group written: not given here.

On to `Nc1nc(O)c2ncn(COC(CO)CO)c2n1` [Ganciclovir, reference compound], for which, in the experiment on HCMV strain AD169 (positive control, HCMV AD169), the “antiviral activity of positive control compound (HCMV)” value is on record as “expected levels of antiviral activity”.

Take `Cc1cn([C@H]2C[C@H](N=[N+]=[N-])[C@@H](CO)O2)c(=O)[nH]c1=O` [AZT]: the “antiviral activity of positive control compounds (HIV-1)” value in the experiment on HIV-1IIIB was “expected levels of antiviral activity”.

Consider `CC(C)(C)NC(=O)[C@@H]1CN(Cc2cccnc2)CCN1C[C@@H](O)C[C@@H](Cc1ccccc1)C(=O)N[C@H]1c2ccccc2C[C@H]1O` [indinavir], for which the “antiviral activity of positive control compounds (HIV-1)” value in the experiment with HIV-1IIIB is on record as “expected levels of antiviral activity”.

Turning to “Ser-Glu-Glu-Pro-Pro-Ile-Ser-Leu-Asp-Leu-Thr-Phe-His-Leu-Leu-Arg-Glu-Val-Leu-Glu-Met-Ala-Arg-Ala-Glu-Gln-Leu-Ala-Gln-Gln-Ala-His-Ser-Asn- Arg-Lys-Leu-Met-Glu-Ile-Ile-NH2 (SEEPPISLDLTFHLLREVLEMARAEQLAQQAHSNRKLMEII-NH2) [Peptide 2]”, in experiment [1], the “inhibition of the tube formation of human endothelial cells (results given under Example 14, Endothelial Cell Migration Assay)” value is recorded as “did not inhibit”. For the same molecule, the “inhibition of HBV replication as compared to the virus control infection” value in experiment [2] was 57.2%. For the same molecule, the “effect (increase) on the phagocytic activity of murine macrophages” value with RAW 264.7 cells was 34.3%. For the same molecule, in the experiment on spleen cells, the “IFNγ spleen cells; TH1 response (% of control)” value was 144.1 % of control, the “IL-2 spleen cells (% of control)” value is 166.5 % of control, the “IL-4 spleen cells; TH2 response (% of control)” value is given as 178.1 % of control and the “IL-5 spleen cells; TH2 response (% of control)” value is 7.0 % of control. For the same molecule, in the experiment on spleen cells, the “TNF-a spleen cells; TH1 response (% of control)” value is 138.1 % of control. In addition, the “inhibition of HCMV plaque formation as compared to the virus control experiment” value in the experiment on HCMV strain AD169 was “did not inhibit”.

For “Asp-Asn-Pro-Ser-Leu-Ser-Ile-Asp-Leu-Thr-Phe-His-Leu-Leu-Arg-Thr-Leu-Leu-Glu-Leu-Ala-Arg-Thr-Gln-Ser-Gln-Arg-Glu-Arg-Ala-Glu-Gln-Asn-Arg- Ile-Ile-Phe-Asp-Ser-Val-NH2 (DNPSLSIDLTFHLLRTLLELARTQSQRERAEQNRIIFDSV-NH2) [Peptide 1]”, in experiment [1], the “inhibition of the tube formation of human endothelial cells (results given under Example 14, Endothelial Cell Migration Assay)” value came to 39%. The “inhibition of HBV replication as compared to the virus control infection” value in experiment [2] is recorded as 63.0%. In addition, in the experiment with RAW 264.7 cells, the “effect (increase) on the phagocytic activity of murine macrophages” value is “no inhibitory or activating effects”. Moreover, in the experiment with spleen cells, the “IFNγ spleen cells; TH1 response (% of control)” value is listed as 29.0 % of control, the “IL-2 spleen cells (% of control)” value is 168.1 % of control, the “IL-4 spleen cells; TH2 response (% of control)” value is 111.6 % of control and the “IL-5 spleen cells; TH2 response (% of control)” value was 68.0 % of control. The “TNF-a spleen cells; TH1 response (% of control)” value with spleen cells is reported as 84.8 % of control. For the same molecule, in the experiment on HCMV strain AD169, the “inhibition of HCMV plaque formation as compared to the virus control experiment” value is recorded as “did not inhibit”.

The record behind these values is patent publication US20100210533A1, “USE OF UROCORTIN AND CORTICOTROPIN-RELEASING FACTOR AS THERAPEUTIC AGENTS” (priority 2007, published 2010).
